Here are results for 21 molecules from article PMC5401710, “Peptides with 6-Aminohexanoic Acid: Synthesis and Evaluation as Plasmin Inhibitors” (International Journal of Peptide Research and Therapeutics, 2016).

For orientation: IC50 means the concentration needed to halve the response being measured.

For test [1], the target named is T1, plasmin (Homo sapiens, UniProt P00747).
T1 construct: The amino-terminal heavy chain of PL consists of five kringle domains; The C-terminal light chain of plasmin is a typical serine protease (SP); purchased Chromogenix (Milano, Italy)
Conditions: cited from earlier work; for inhibitory effect on plasmin activity: ref Midura-Nowaczek et al. [2003].

Test [2] has as its target T1, plasmin. Description: Amidolytic activity of plasmin (substrate S-2251). The test is classed as biochemical. Conditions: amidolytic activity, S-2251, tris buffer pH 7.4. The protocol:
(§1) Determination of amidolytic activity was performed as previously described by (Okada et al. [1988]). Buffer and 0.1 ml of enzyme solution was added to 0.2 ml of examined compound dissolved in 0.15 M NaCl (1–15) (as control 0.15 M NaCl). The buffer and the enzyme solution included: • tris buffer—0.6 ml (pH 8.8), enzyme: urokinase (50 units/ml), synthetic substrate: S-2444 (0.1 ml, 3 mM); • tris buffer—0.5 ml (pH 8.4), enzyme: thrombin (1 units/ml), synthetic substrate: S-2238 (0.2 ml, 0.75 mM); • tris buffer—0.5 ml (pH 7.4), enzyme: plasmin (0.4 units/ml), synthetic substrate: S-2251 (0.2 ml, 3 mM); • […]—0.5 ml (pH 7.5), enzyme: trypsin (0.4 units/ml), synthetic substrate: Bzl-L-Arg–pNA.HCl (0.2 ml, 8 mM); • tris buffer—0.6 ml (pH 9.0), enzyme: kallikrein (3 units/ml), synthetic substrate: S-2266 (0.1 ml, 75 mM); • tris buffer—0.6 ml (pH 8.4), enzyme: t-PA ([…]), synthetic substrate: S-2288 (0.1 ml, 10 mM).
(§2) IC50 values were determined (IC50, Inhibitor Concentration, the concentration at which enzyme activity is inhibited by 50 %). Our results were compared with the 6-aminohexanoic acid.

The next test deals with T2, thrombin (Bos taurus, UniProt P00735).
T2 construct: purchased Lubelska Wytwórnia Szczepionek (Lublin, Poland)
Description: Amidolytic activity of thrombin (substrate S-2238). The test is classed as biochemical. To be noted: amidolytic activity, S-2238, tris buffer pH 8.4. The protocol:
as §1, §2

The next test addresses T3, tPA (Homo sapiens, UniProt P00750).
T3 construct: purchased Boehringer Ingelheim GmbH (Ingelheim, Germany)
Description: Amidolytic activity of t-PA (substrate S-2288). The class given is biochemical. Conditions: amidolytic activity, S-2288, tris buffer pH 8.4. The protocol:
as §1, §2

For a further test, the target named is T4, uPA (Homo sapiens, UniProt P00749).
T4 construct: purchased Sigma (Schnelldorf, Germany)
The test is described as follows: Amidolytic activity of urokinase (substrate S-2444). To be noted: amidolytic activity, S-2444, tris buffer pH 8.8. The class given is biochemical. The protocol:
as §1, §2

The next test deals with trypsin. Description: Amidolytic activity of trypsin (substrate Bzl-L-Arg-pNA). The class given is biochemical. Conditions: amidolytic activity, Bzl-L-Arg-pNA, borane buffer pH 7.5. The protocol: as §1, §2
The subject of test [3] is fibrinolysis in whole blood. The test is described as follows: Thromboelastometric (ROTEM) analysis of clot formation and fibrinolysis in whole blood. Also noted: species or system human. To be noted: for clotting time (CT, coagulation time) / lysis of the clot in 45 min (from LI45): human whole blood; for clotting time (CT, coagulation time): control 174 s; for lysis of the clot in 45 min (from LI45): whole blood alone about 61 %; for LOT lysis onset time (clot amplitude reduced by 15 %) / LT lysis time (clot reduced/lysed by 90 %) / LI30 lysis index, amplitude of clot after 30 min / LI45 lysis index, amplitude of clot after 45 min / LI60 lysis index, amplitude of clot after 60 min: recalcified human whole blood; for LOT lysis onset time (clot amplitude reduced by 15 %) / LT lysis time (clot reduced/lysed by 90 %): 140 ng/ml TF, 125 ng/ml tPA; for LI30 lysis index, amplitude of clot after 30 min / LI45 lysis index, amplitude of clot after 45 min / LI60 lysis index, amplitude of clot after 60 min: TF + tPA. The protocol:
Five healthy volunteers, men (age range: 25–34 years)) with normal blood cell counts were entered into the study. Healthy volunteers had not taken medication known to affect platelet function and/or coagulation for at least 10 days before blood sampling.
Blood was stored at room temperature for 30 min after venipuncture and then was evaluated by thromboelastometric analyses.
Thromboelastometric measurements were performed using ROTEM system (Tem International GmbH, Manheim, Germany). […] We measured the parameters characterized kinetic of clot formation (clotting time, alpha angle), clot strength (maximal clot firmness; MCF), and fibrinolysis (percentage reduction of MCF, clot lysis time).

Setting [4] is: listed as H–Ala–Phe–Lys–EACA–NH2.
[5] abbreviates: ref Midura-Nowaczek et al. [1990].

Where two headings read alike, the source gives them in different places. Non-standard residues stand in square brackets, D forms with d. Residues, ends and D or L forms follow the SMILES beside them. Ahx = NCCCCCC(=O)O

T3 sequence (P00750 36-562): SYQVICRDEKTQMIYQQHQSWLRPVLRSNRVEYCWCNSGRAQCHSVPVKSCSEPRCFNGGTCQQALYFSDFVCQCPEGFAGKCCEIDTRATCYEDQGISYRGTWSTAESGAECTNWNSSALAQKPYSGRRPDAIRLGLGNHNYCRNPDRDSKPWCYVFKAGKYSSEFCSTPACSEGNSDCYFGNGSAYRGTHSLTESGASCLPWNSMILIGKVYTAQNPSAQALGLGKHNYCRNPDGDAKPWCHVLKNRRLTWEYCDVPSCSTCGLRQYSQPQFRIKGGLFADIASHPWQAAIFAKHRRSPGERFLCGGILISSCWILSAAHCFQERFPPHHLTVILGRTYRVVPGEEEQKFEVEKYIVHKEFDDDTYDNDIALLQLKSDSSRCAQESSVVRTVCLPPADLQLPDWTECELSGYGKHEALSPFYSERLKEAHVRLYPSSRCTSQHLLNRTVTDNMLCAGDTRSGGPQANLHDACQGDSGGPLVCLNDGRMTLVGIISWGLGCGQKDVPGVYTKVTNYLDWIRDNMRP
T1 sequence (P00747 97-580 limits assumed): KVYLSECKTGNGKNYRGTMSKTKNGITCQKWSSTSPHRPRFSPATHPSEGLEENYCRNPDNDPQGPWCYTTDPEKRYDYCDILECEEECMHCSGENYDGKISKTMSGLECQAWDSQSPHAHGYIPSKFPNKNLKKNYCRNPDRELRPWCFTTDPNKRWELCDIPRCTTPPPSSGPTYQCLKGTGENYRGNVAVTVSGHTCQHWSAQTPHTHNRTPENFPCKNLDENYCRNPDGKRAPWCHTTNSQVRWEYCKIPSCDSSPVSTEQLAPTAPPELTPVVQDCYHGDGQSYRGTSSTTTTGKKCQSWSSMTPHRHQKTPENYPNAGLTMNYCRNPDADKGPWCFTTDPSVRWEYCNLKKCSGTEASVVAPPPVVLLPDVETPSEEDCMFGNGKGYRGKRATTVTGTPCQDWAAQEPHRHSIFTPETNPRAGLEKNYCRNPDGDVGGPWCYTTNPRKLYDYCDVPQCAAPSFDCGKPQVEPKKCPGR
T1 sequence (P00747 581-810 limits assumed): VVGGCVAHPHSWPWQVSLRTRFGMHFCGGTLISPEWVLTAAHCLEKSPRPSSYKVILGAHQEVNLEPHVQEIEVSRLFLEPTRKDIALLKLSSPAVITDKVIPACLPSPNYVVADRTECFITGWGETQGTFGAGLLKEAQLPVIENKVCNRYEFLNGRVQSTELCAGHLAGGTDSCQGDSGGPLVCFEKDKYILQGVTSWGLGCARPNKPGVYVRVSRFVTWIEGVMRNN

On to `CC(=O)N[C@@H](CCCCN)C(=O)NCCCCCN` [Ac–Lys–NH–(CH2)5–NH2], for which the IC50 on plasmin [1] (ref Midura-Nowaczek et al. [2008]) was 8 mM.

On to `NCCCC[C@H](NC(=O)[C@@H](N)Cc1ccccc1)C(=O)NCCCCCC(=O)O` [Compound 1, H–Phe–Lys–EACA–OH] (H-Phe-Lys-[Ahx]-OH), for which the IC50 is 11.4 ± 0.91 mM at plasmin [2], above 20 mM against thrombin, above 20 mM against tPA and above 20 mM against uPA.

On to `C[C@@H](N)C(=O)N[C@@H](Cc1ccccc1)C(=O)N[C@@H](CCCCN)C(=O)NCCCCCC(=O)O` [Compound 2, H–D-Ala–Phe–Lys–EACA–OH] (H-[dA]FK[Ahx]-OH), for which the IC50 was 3.37 ± 0.27 mM on plasmin [2], 3.85 ± 0.31 mM at thrombin, 14.4 ± 1.15 mM on tPA and above 20 mM on uPA.

For the molecule `C[C@H](N)C(=O)N[C@@H](Cc1ccccc1)C(=O)N[C@@H](CCCCN)C(=O)NCCCCCC(=O)O` [Compound 3, H–Ala–Phe–Lys–EACA–OH] (H-AFK[Ahx]-OH), the half-maximal inhibitory concentration (IC50) against plasmin [2] was 4.82 ± 0.39 mM; against thrombin it was 5.04 ± 0.4 mM; on tPA, 17.6 ± 1.41 mM; on uPA, above 20 mM.

Take `C[C@@H](N)C(=O)N[C@@H](Cc1ccccc1)C(=O)NCCCCCC(=O)O` [Compound 4, H–D-Ala–Phe–EACA–OH] (H-[dA]-Phe-[Ahx]-OH): the IC50 was 10.9 ± 0.87 mM on plasmin [2], above 20 mM at thrombin, 6.48 ± 0.52 mM at tPA and 3.17 ± 0.25 mM at uPA.

For `C[C@H](N)C(=O)N[C@@H](Cc1ccccc1)C(=O)NCCCCCC(=O)O` [Compound 5, H–Ala–Phe–EACA–OH] (H-Ala-Phe-[Ahx]-OH), the IC50 against plasmin [2] is above 20 mM; against thrombin it was 4.77 ± 0.38 mM; at tPA it was above 20 mM; against uPA, 3.38 ± 0.27 mM.

With `NCCCC[C@H](NC(=O)[C@@H](N)Cc1ccccc1)C(=O)NCCCCCC(N)=O` [Compound 6, H–Phe–Lys–EACA–NH2] (H-Phe-Lys-[Ahx]-NH2), the IC50 against plasmin [2] was 1.43 ± 0.11 mM; against thrombin, above 20 mM; against tPA, above 20 mM; at uPA it was above 20 mM; with trypsin it was above 20 mM.

At plasmin [2], `C[C@@H](N)C(=O)N[C@@H](Cc1ccccc1)C(=O)N[C@@H](CCCCN)C(=O)NCCCCCC(N)=O` [Compound 7, H–D-Ala–Phe–Lys–EACA–NH2] (H-[dA]FK[Ahx]-NH2) displayed a half-inhibitory concentration (IC50) of 0.02 ± 0.0016 mM. Besides, the IC50 at thrombin is above 20 mM. The same molecule showed a 50% inhibitory concentration (IC50) on tPA above 20 mM. The molecule further yielded an IC50 at uPA above 20 mM. The molecule further showed an IC50 with trypsin above 20 mM. In test [3], the “clotting time (CT, coagulation time)” value turned out to be 115 s; the “lysis of the clot in 45 min (from LI45)” value is reported as 21%; the “LOT lysis onset time (clot amplitude reduced by 15 %)” value is reported as 2519 ± 176 s; the “LT lysis time (clot reduced/lysed by 90 %)” value is listed as 72 ± 4 min. In addition, in test [3], the “LI30 lysis index, amplitude of clot after 30 min” value (“LI30 lysis index, amplitude” for short) stood at 97%; the “LI45 lysis index, amplitude of clot after 45 min” value (from here on “LI45 lysis index, amplitude”) is listed as 79%; the “LI60 lysis index, amplitude of clot after 60 min” value (from here on “LI60 lysis index, amplitude”) stood at 28%.

The molecule `C[C@H](N)C(=O)N[C@@H](Cc1ccccc1)C(=O)N[C@@H](CCCCN)C(=O)NCCCCCC(N)=O` [Compound 8, H–Ala–Phe–Lys–EACA–NH2] (H-AFK[Ahx]-NH2) gave a half-inhibitory concentration (IC50) against plasmin [2] of 0.13 ± 0.01 mM. This molecule also displayed a half-inhibitory concentration (IC50) against thrombin of 7.59 ± 0.61 mM. This molecule came in with an IC50 against tPA above 20 mM. For the same molecule, at uPA, the IC50 was above 20 mM. The molecule also had an IC50 in the test with trypsin above 20 mM. For the same molecule, in test [3], the “clotting time (CT, coagulation time)” value is recorded as 135 s; the “lysis of the clot in 45 min (from LI45)” value came out at 14%; the “LOT lysis onset time (clot amplitude reduced by 15 %)” value was determined as 2731 s; the “LT lysis time (clot reduced/lysed by 90 %)” value was “about 67 min”. Besides, in test [3], the “LI30 lysis index, amplitude” value was found to be 99%; the “LI45 lysis index, amplitude” value is on record as 86%; the “LI60 lysis index, amplitude” value was found to be 43%. Also, in test [3] (setting [4]), the “LOT lysis onset time (clot amplitude reduced by 15 %)” value came out at 2731 ± 160 s and the “LT lysis time (clot reduced/lysed by 90 %)” value amounted to 76 ± 6 min.

On to `C[C@@H](N)C(=O)N[C@@H](Cc1ccccc1)C(=O)NCCCCCC(N)=O` [Compound 9, H–D-Ala–Phe–EACA–NH2] (H-[dA]-Phe-[Ahx]-NH2), for which the IC50 at plasmin [2] was 1.55 ± 0.12 mM; against thrombin it was above 20 mM; at tPA, above 20 mM; at uPA, above 20 mM.

On to `C[C@H](N)C(=O)N[C@@H](Cc1ccccc1)C(=O)NCCCCCC(N)=O` [Compound 10, H–Ala–Phe–EACA–NH2] (H-Ala-Phe-[Ahx]-NH2), for which the 50% inhibitory concentration (IC50) is above 20 mM against plasmin [2], above 20 mM on thrombin, above 20 mM at tPA and 2.61 ± 0.21 mM against uPA.

As to `NCCCCCNC(=O)CCCCCNC(=O)[C@H](CCCCN)NC(=O)[C@@H](N)Cc1ccccc1` [Compound 11, H–Phe–Lys–EACA–NH–(CH2)5–NH2], the half-maximal inhibitory concentration (IC50) was 4.82 ± 0.39 mM at plasmin [2], above 20 mM on thrombin, above 20 mM at tPA and above 20 mM on uPA.

Consider `C[C@@H](N)C(=O)N[C@@H](Cc1ccccc1)C(=O)N[C@@H](CCCCN)C(=O)NCCCCCC(=O)NCCCCCN` [Compound 12, H–D-Ala–Phe–Lys–EACA–NH–(CH2)5–NH2], for which the half-maximal inhibitory concentration (IC50) against plasmin [2] was 1.11 ± 0.09 mM; against thrombin, above 20 mM; against tPA, above 20 mM; against uPA, above 20 mM; with trypsin it was above 20 mM.

Take `C[C@H](N)C(=O)N[C@@H](Cc1ccccc1)C(=O)N[C@@H](CCCCN)C(=O)NCCCCCC(=O)NCCCCCN` [Compound 13, H–Ala–Phe–Lys–EACA–NH–(CH2)5–NH2]: the 50% inhibitory concentration (IC50) at plasmin [2] was 1.4 ± 0.11 mM; against thrombin, above 20 mM; at tPA, above 20 mM; on uPA, above 20 mM.

With `C[C@@H](N)C(=O)N[C@@H](Cc1ccccc1)C(=O)NCCCCCC(=O)NCCCCCN` [Compound 14, H–D-Ala–Phe–EACA–NH–(CH2)5–NH2], the half-inhibitory concentration (IC50) on plasmin [2] is 4.77 ± 0.38 mM; at thrombin it was above 20 mM; against tPA it was above 20 mM; against uPA, above 20 mM.

In the case of `C[C@H](N)C(=O)N[C@@H](Cc1ccccc1)C(=O)NCCCCCC(=O)NCCCCCN` [Compound 15, H–Ala–Phe–EACA–NH–(CH2)5–NH2], the concentration for half-maximal inhibition (IC50) against plasmin [2], against thrombin, against tPA and on uPA was above 20 mM each time.

Regarding `NCCCCCC(N)=O` [H–EACA–NH2, reference compound], in test [3], the “clotting time (CT, coagulation time)” value is given as 117 s; the “lysis of the clot in 45 min (from LI45)” value came to 20%; the “LOT lysis onset time (clot amplitude reduced by 15 %)” value was 2488 ± 172 s; the “LT lysis time (clot reduced/lysed by 90 %)” value was found to be 71 ± 5 min. In test [3], the “LI30 lysis index, amplitude” value is reported as 96%; the “LI45 lysis index, amplitude” value is recorded as 80%; the “LI60 lysis index, amplitude” value is 32%.

With H-[dA]-Phe-Lys-NH2, the plasmin inhibitory activity entry on plasmin [1] (ref Markowska et al. ([2007])) is “no activity”. Further, the “inhibitory effect on plasmin activity” value at plasmin [1] was “completely lacked this effect”.

For the molecule H–Ala–Phe–Lys–NH2, on plasmin [1], the “inhibitory effect on plasmin activity” value was “completely lacked this effect”.

Consider H–Ala–Phe–Lys–NH–(CH2)5–NH2, for which the plasmin inhibitory activity result on plasmin [1] (setting [5]) is reported as “no plasmin inhibitory activity”.

In the case of H–D-Ala–Phe–Lys–NH–(CH2)5–NH2, the plasmin inhibitory activity result on plasmin [1] (setting [5]) is “no activity”.
